Experimental data as given in PMC5871694, “S-Adenosyl-L-Homocysteine Hydrolase Inhibition by a Synthetic Nicotinamide Cofactor Biomimetic” (Frontiers in Microbiology, 2018).
pEC50, pIC50, pKd, pKi: −log10 of the molar value. Values joined by “and” are separate entries in the source; they are usually repeats but may differ in a detail not shown here. Equal entries are not always repeated. Where two headings read alike, the source gives them in different places.

Columns and labels:
[1] = target: SAHase from Trypanosoma cruzi; set-up: method as in Li Q.-S. et al., 2007; conditions: ref Li Q.-S. et al., 2007; cited from earlier work
[2] = target: T1, Bradyrhizobium elkanii SAHase (BeSAHase) (Bradyrhizobium elkanii, UniProt A0A087WNH6); assay: Isothermal titration calorimetry (ITC); type: binding; conditions: for KD: apo-BeSAHase titrated with cofactor, 25°C, pH 7; for binding to apo-BeSAHase: titration of apo-BeSAHase; for binding to holo-BeSAHase: titration of holo-BeSAHase
T1 construct: His-tag (N); made in house; host or cells: E. coli
T1 sequence (A0A087WNH6 1-473): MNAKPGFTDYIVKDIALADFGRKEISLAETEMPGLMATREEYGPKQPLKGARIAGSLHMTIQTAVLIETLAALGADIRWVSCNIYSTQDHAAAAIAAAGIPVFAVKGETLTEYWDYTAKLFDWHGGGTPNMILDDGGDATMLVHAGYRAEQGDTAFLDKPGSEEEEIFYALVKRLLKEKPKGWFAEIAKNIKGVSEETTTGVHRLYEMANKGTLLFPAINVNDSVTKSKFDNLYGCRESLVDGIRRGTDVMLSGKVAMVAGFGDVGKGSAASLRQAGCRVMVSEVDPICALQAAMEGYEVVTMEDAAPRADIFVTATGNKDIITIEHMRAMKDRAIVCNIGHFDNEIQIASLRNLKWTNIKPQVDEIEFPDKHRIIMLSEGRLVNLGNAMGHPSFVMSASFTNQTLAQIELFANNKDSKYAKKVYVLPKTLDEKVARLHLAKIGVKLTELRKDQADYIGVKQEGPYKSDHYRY
Method: Interaction analyses by ITC were performed with an Affinity ITC microcalorimeter (Low Volume, 24 K Gold Cell; TA Instruments). Prior to measurements, protein was dialyzed into 20 mM MOPS buffer containing 150 mM NaCl. The buffer was adjusted to pH 7 at room temperature, but dialysis was carried out at 4°C. To ensure equal buffer conditions, ligands were dissolved and diluted in the same buffer that was used for the last step of protein dialysis. Measurements were carried out at a constant cell temperature of 25°C. The cell was equilibrated with 40–90 μM SAHase for at least 10 min before the first injection of the respective ligand. The volume of the injections was varied between 2 and 4 μL, depending on the experiment and ligand concentration. The spacing between injections was adjusted according to the time required to reach the binding equilibrium (usually 240–500 s). Ligand titration was continued until peak sizes remained constant, representing only the enthalpy of dilution. The latter was subtracted from the raw data using a mock titration of the ligand into buffer only. Data evaluation was performed with the NanoAnalyze software (v. 3.7.5; TA Instruments), using the model “independent set of multiple binding sites” ([Freire et al., 1990]) for KD determination.

SAHase from humans = target: SAHase from humans; set-up: method as in Li Q.-S. et al., 2007; conditions: human SAHase; ref Li Q.-S. et al., 2007; cited from earlier work
bovine liver SAHase = target: bovine liver SAHase; set-up: method as in Porter and Boyd, 1992; conditions: cited from earlier work
[3] = target: T1, Bradyrhizobium elkanii SAHase (BeSAHase); assay: HPLC-based endpoint activity assay in the direction of SAH synthesis; type: biochemical
Method: HPLC-based activity measurements in the direction of SAH synthesis were carried out as described by [Kailing et al. (2017)], with constant substrate concentrations (0.5 mM) of both Ado and Hcy. For the cofactor screenings, the assay was supplemented with 2 mM of the respective compound and reactions were initiated with ∼10 μg (700 nM final concentrations in assay) of apo- or holo-BeSAHase, respectively. One set of reactions was terminated after 30 min, the other after 17 h. […] Reactions were terminated after 30 min. Conversions were derived from HPLC chromatograms as described before ([Kailing et al., 2017]), plotted against the concentration of inhibitor and a linear regression analysis was performed with the GraphPad Prism software (v. 6.01). The IC50 was calculated as the concentration leading to half-maximum effect of the inhibitor.

[4] = target: T1, Bradyrhizobium elkanii SAHase (BeSAHase); assay: Photometric DTNB kinetic assay in the hydrolytic direction (SAH hydrolysis); type: biochemical
Method: Reactions were performed at room temperature in 100 μL sodium phosphate buffer (100 mM, pH 8), supplemented with 1 mM EDTA, 0.2 mM 5,5′-dithiobis(2-nitrobenzoic acid) (DTNB) and SAHase. In experiments with defined NAD^+ concentrations, apo-SAHase was pre-incubated with the respective amount of cofactor for at least 2 h, to ensure that the binding equilibrium was reached before initiation of the reaction. Enzyme concentrations were adjusted according to specific activity, to avoid exceeding maximum reaction rates (vmax) of 0.01 mM⋅min^-1. Higher reaction rates would lead to product inhibition, caused by the accumulation of Ado, in the time frame of the measurement. Reactions were initiated by addition of the substrate (SAH). The reaction rate was monitored photometrically, using DTNB to detect the formation of Hcy. Experiments were carried out in a double-beam UV-vis spectrophotometer (Specord 205, Analytik Jena). Initial reaction rates (v0) were calculated from the first 20–25 s of the reaction, based on the increase of extinction (ΔE) at 412 nm over time (Δt) in a quartz cuvette with a path length (d) of 1 cm, assuming an extinction coefficient (ε) of 14,150 L cm^-1 mol^-1 for the product: v0 = ΔE ⋅ ε412 nm–1 ⋅ d^-1 ⋅ Δt^-1. The assay was validated by comparison to data obtained with the coupled photometric assay described by [Kailing et al. (2017)]. The latter assay was not used in this study, since NCB 10 contributes to oxidation of the monitoring compound NADH in a non-enzymatic way, thereby compromising the reliability of the measurement.
Initial reaction rates were plotted against the concentration of inhibitor and a linear regression analysis was performed as described above for the HPLC assay. The inhibitory constant (Ki) was calculated from the following relation, where KM, [E] and [S] denote the Michaelis–Menten constant, concentration of enzyme and of substrate, respectively: IC50 = Ki ⋅ KM–1 ) + [E]0/2 ([Cha, 1975]). Characterization of the inhibition model was done by measuring Michaelis–Menten kinetics in the presence of varying inhibitor concentrations. KM and maximum reaction rate (vmax) values were obtained by non-linear Michaelis–Menten fitting using GraphPad Prism.
Kinetic-based binding studies to determine the half-maximum effective concentration (EC50) for NAD^+ were carried out with 330 nM SAHase, after pre-incubation with the respective amount of NAD^+, and constant substrate concentrations (0.2 mM SAH). Initial reaction rates were plotted against the NAD^+ concentration and a hyperbolic fit was calculated using GraphPad Prism. The EC50 was calculated as the NAD^+ concentration leading to half-maximum activation of BeSAHase.

[5] = physiological pH, cited from earlier work
[6] = ref Porter and Boyd, 1992, read-out: KD (estimated)
[7] = calculated from IC50, KM, enzyme and substrate concentration

NC(=O)C1=CN([C@@H]2O[C@H](COP(=O)(O)OP(=O)(O)OC[C@H]3O[C@@H](n4cnc5c(N)ncnc54)[C@H](O)[C@@H]3O)[C@@H](O)[C@H]2O)C=CC1 [NADH]
KD range [1]: nanomolar | KD [2]: low micromolar range | KD range (SAHase from humans): nanomolar

C=C1OC(n2cnc3c(N)ncnc32)C(O)C1=O (stereo not shown) [4′,5′-dehydro-3′-ketoadenosine]
pKd (bovine liver SAHase; [6]): 9.52

N#Cc1ccc[n+](Cc2ccccc2)c1 [NCB 10]
pIC50 ([3]; 100 nM NAD+-saturated SAHase, 0.5 mM Ado and Hcy, 30 min, linear regression): ~2.85 and 2.84 | inhibition at 2000 µM ([3]; holo-SAHase in the presence of excess NAD+, 2 mM compound, read-out: inhibition of substrate conversion): ~75% | binding to apo-BeSAHase [2]: small binding enthalpies | binding to apo-BeSAHase ([2]; listed as 10): Neither titration of holo-, nor of apo-SAHase gave any hint of a binding event | binding to holo-BeSAHase [2]: small binding enthalpies | binding to holo-BeSAHase ([2]; listed as 10): Neither titration of holo-, nor of apo-SAHase gave any hint of a binding event | pIC50 ([4]; 285 nM NAD+-saturated BeSAHase, 0.2 mM SAH, linear regression): ~1.85 and 1.84 | inhibition mechanism ([4]; Michaelis-Menten kinetics with varying inhibitor concentrations): non-competitive | pKi [4, 7]: ~2.70 | Ki,hydrolysis [4, 7]: millimolar range | redox potential ([5]; 10ox/10red, ref Ostovic et al., 1985): -220 mV

Nc1ncnc2c1ncn2C1OC(CO)C(=O)C1O (stereo not shown) [3′-ketoadenosine]
pKd (bovine liver SAHase; [6]): 9.22

Nc1ncnc2c1ncn2[C@@H]1O[C@H](CO)[C@@H](O)[C@H]1O [Ado, adenosine]
pKd (bovine liver SAHase; ref Porter and Boyd, 1992, read-out: KD): 5.05

NC(=O)c1ccc[n+]([C@@H]2O[C@H](COP(=O)([O-])OP(=O)(O)OC[C@H]3O[C@@H](n4cnc5c(N)ncnc54)[C@H](O)[C@@H]3O)[C@@H](O)[C@H]2O)c1 [NAD^+, nicotinamide adenine dinucleotide, reference compound]
reconstitution of activity of apo-SAHase ([3]; apo-BeSAHase, 2 mM compound, 0.5 mM Ado and Hcy, 30 min and 17 h): recovered highly active enzyme | time to full substrate conversion after re-supplementation of apo-SAHase ([3]; apo-BeSAHase, HPLC-based assay conditions): less than 30 min | KD [2]: low micromolar range | pEC50 ([4]; 330 nM apo-SAHase pre-incubated with NAD+, 0.2 mM SAH, hyperbolic fit, read-out: EC50 (half-maximum activation of BeSAHase)): ~5.00 and 4.95 | redox potential ([5]; NAD+/NADH, ref Burton and Wilson, 1953): -320 mV
